# Data taken from US20060013780A1, “N,N'-dialkyl derivatives of polyhydroxyalkyl alkylenediamines” (priority 2004, published 2006).
# Key:
# [1] = Dynamic surface tension, maximum bubble pressure method; type: physicochemical; conditions: for DST (0.1 WT %, mN/m) 0.1 b/s / DST (0.1 WT %, mN/m) 10 b/s: 0.1 wt % in distilled and deionized water; for DST (0.1 WT %, mN/m) 0.1 b/s / DST (0.5 WT %, mN/m) 0.1 b/s: 0.1 bubbles/sec; for DST (0.1 WT %, mN/m) 10 b/s / DST (0.5 WT %, mN/m) 10 b/s: 10 bubbles/sec; for DST (0.5 WT %, mN/m) 0.1 b/s / DST (0.5 WT %, mN/m) 10 b/s: 0.5 wt % in distilled and deionized water
# Method: Solutions in distilled and deionized water of the surfactants of the invention were prepared. […] In a practical sense, high surface creation rates refer to rapid processes such as a spray or roller-applied coating, a high speed printing operation, or the rapid application of an agricultural product or a cleaner.
# [2] = Equilibrium surface tension, Kruss K-12 tensiometer with platinum Wilhelmy plate; type: physicochemical; conditions: 25±1° C.; for EST (0.01 WT %, mN/m): 0.01 wt % in water; for EST (0.1 WT %, mN/m): 0.1 wt % in water; for EST (1.0 WT %, mN/m): 1.0 wt % in water
# Method: Equilibrium surface tensions were determined using a Kruss K-12 tensiometer with a platinum Wilhelmy plate, maintaining the temperature at 25±1° C. by means of a constant temperature circulating bath.
# [3] = Cleaning performance, ASTM D4488-95, reflectance of white vinyl composition tile; conditions: 0.1% (wt %) surfactant
# Text: Although dynamic and equilibrium surface tension as well as foam influence the cleaning ability of a surfactant, other factors also affect cleaning performance. Thus one good way to determine the cleaning ability of a surfactant is to apply a soil to a substrate, clean that substrate with the surfactant of interest and some benchmark surfactants, and compare relative cleaning efficacies in terms of percent soil removal. One method for conducting such testing is described in ASTM D4488-95, “Standard Guide for Testing Cleaning Performance of Products Intended for Use on Resilient Flooring and Washable Walls.” This method was followed according to the particulate and oily soil/vinyl tiles test methodology, with cleaning performance being evaluated by reading average reflectance values (5 readings/tile) of a white vinyl composition tile before and after cleaning (Table 6). The higher the reflectance value the better the cleaning ability of the surfactant.
# The cleaning performance of surfactants according to the invention was compared side by side with that of two benchmark surfactants, Neodol 23-6.5 (available from Shell Chemical of Houston, Tex.) and AG 6202 (available from Akzo Nobel of McCook, Ill.), an alcohol ethoxylate and an alkylpolyglucoside surfactant, respectively.
# [4] = Ross-Miles foam test (modified, ASTM D1173-53); type: physicochemical; conditions: surfactant in water; 0.01 wt % and 0.1 wt %, table does not say which
# [5] = Aqueous solubility comparison; conditions: in water
# Method: Comparison of the aqueous solubilities of several N,N′-dialkyl-N,N′-bis(1-deoxyglucityl)ethylenediamines was performed, with the results as follows:
# The ratios of compounds are on a molar basis.
Molecule,"DST (0.1 WT %, mN/m) 0.1 b/s [1] [mN/m]","DST (0.1 WT %, mN/m) 10 b/s [1] [mN/m]","DST (0.5 WT %, mN/m) 0.1 b/s [1] [mN/m]","DST (0.5 WT %, mN/m) 10 b/s [1] [mN/m]","dynamic surface tension reduction in words ([1]; Table 4 data, strong at low bubble rates)","EST (0.01 WT %, mN/m) [2] [mN/m]","EST (0.1 WT %, mN/m) [2] [mN/m]","EST (1.0 WT %, mN/m) [2]",% SOIL REMOVAL [3] [%],Ross Miles Final Foam (cm) [4] [cm],Ross Miles Initial Foam (cm) [4] [cm],aqueous solubility in words [5]
"CCCCN(CCN(CCCC)C[C@H](O)[C@@H](O)[C@H](O)[C@H](O)CO)C[C@H](O)[C@@H](O)[C@H](O)[C@H](O)CO [DBDGEDA, N,N′-dibutyl-N,N′-bis(1-deoxyglucityl)-1,2-diaminoethane]",63,67,56,47,moderate to low,62,50,47 mN/m,45,0.5,1.8,–
"CCCCCCN(CCN(CCCCCC)C[C@H](O)[C@@H](O)[C@H](O)[C@H](O)CO)C[C@H](O)[C@@H](O)[C@H](O)[C@H](O)CO [DHDGEDA, N,N′-dihexyl-N,N′-bis(1-deoxyglucityl)-1,2-diaminoethane]",37,51,30,32,–,57,33,30 mN/m,67,1.5,3.6,extreme insolubility
CCCCNC[C@H](O)[C@@H](O)[C@H](O)[C@H](O)CO [N-Butylglucamine],71,72,70,71,–,–,–,≧50 mN/m,–,0.3,2.5,–
CCCCCCNC[C@H](O)[C@@H](O)[C@H](O)[C@H](O)CO [N-Hexylglucamine],68,70,55,57,–,64,60,52 mN/m,–,1.0,2.0,–
CCCCCCCCNC[C@H](O)[C@@H](O)[C@H](O)[C@H](O)CO [N-Octylglucamine],54,65,48,62,–,55,35,35 mN/m,–,0.3,2.0,–
"N,N′-dioctyl-N,N′-bis(1-deoxyglucityl)ethylenediamine [DODGEDA]",–,–,–,–,–,–,–,–,48,–,–,–
